Data taken from patent publication US20210088529A1, “USE OF QUINALDINE RED AND DERIVATIVES THEREOF IN PREPARATION OF KIT FOR DETECTING AMYLOID FIBRILS” (Jilin University, priority 2019, published 2021).

Assays:
bovine insulin fibrils [1] = target: T1, bovine insulin fibrils (Bos taurus, UniProt P01317); assay: QR replacement of a conventional probe bound to bovine insulin fibrils; assay type: binding; settings: ThS or NR bound first, then QR added, FIGS. 5B-5D
Protocol: (§1) 0.05 ml of each of QR, ThT, ThS and NR solutions was taken, then added with 0.05 ml of the bovine insulin fibrils, diluted with 0.9 ml of PBS to 1 ml, and then determined for the fluorescence intensity.
Since the binding constant of binding between QR and the bovine insulin is the largest, ThT, ThS, and NR were first used to bind to the bovine insulin fibrils for fluorescence determination, then QR was added for a replacement reaction.

[2] = target: bovine insulin amyloid fibrils (Bos taurus, UniProt P01317); assay: Monitoring the kinetic process of bovine insulin fibrillation by fluorescence; settings: 0.5 mM insulin in NaCl/HCl pH 1.6, samples at different time points, QR 1 mM 0.05 mL; FIG. 3B
Protocol: As the mechanism of amyloid fibril-related disease was still being explored, and the kinetic process of the amyloid fibrils might provide relevant information for the mechanism, the kinetic process of the formation of the bovine insulin amyloid fibrils was monitored with QR. […] Three duplicate samples were made for each group of samples, and all of the above samples were determined on a fluorescence spectrometer for fluorescence intensities.

lysozyme fibrils = lysozyme fibrils (Gallus gallus, UniProt P00698); assay: Fluorescence identification of lysozyme fibrils; assay type: binding; settings: lysozyme 0.1 mM fibrillated at 65° C. for 180 min; FIG. 3C
Protocol: Formulation of a glycine/NaCl buffer solution: the pH value of the glycine/NaCl aqueous solution was adjusted to 2.0 with HCl, where the concentration of sodium chloride was 80 mM and the concentration of glycine was 70 mM.
The lysozyme (0.1 mM) was dissolved in a glycine/NaCl buffer solution for fibrillation at 65° C. under magnetic stirring at a rotation rate of 220 rmp for 180 min. The fluorescence intensities of QR, QR-lysozyme and QR-lysozyme fibrils were determined respectively.

bovine insulin [3] = target: T2, bovine insulin (Bos taurus, UniProt P01317); assay: Isothermal titration calorimetry (ITC) of dyes with bovine insulin; assay type: binding; settings: 25° C., insulin 0.25 mM, dyes 0.01 mM, FIG. 4
Protocol: Isothermal titration calorimetry (ITC): the bovine insulin was diluted to a final concentration of 0.25 mM, the QR, ThT, ThS, NR were each diluted to a final concentration of 0.01 mM, and then the aforementioned dyes were titrated with the bovine insulin at 25° C., where the dye was added dropwise into a sample chamber containing a solution of the bovine insulin through an automatically-controlled rotary syringe. At the same time, a blank test was carried out, where dye solutions with equal concentration and equal volume were added dropwise into ultra-pure water, and dilution heat was deducted to obtain a binding constant.

bovine insulin [4] = target: T2, bovine insulin; assay: Raman (SERS) study of the manner of binding between QR and bovine insulin; settings: SERS on silver sol, 532 nm, QR 0.01 mM, bovine insulin 0.01 mM; FIG. 2
Protocol: The manner of binding between QR and the bovine insulin was studied by using a Raman spectrometer with an excitation line of a laser model of 532 nm. First, a silver sol was synthesized as a SERS (surface-enhancement raman scattering) substrate. The synthesized silver nanoparticles were respectively added with the bovine insulin (0.01 mM), QR (0.01 mM) and a mixed sample of them, for detection.

bovine insulin fibrils [5] = target: T1, bovine insulin fibrils; assay: Fluorescence response (identification) of bovine insulin fibrils by the dye; assay type: binding; settings: for identification of bovine insulin fibril (fluorescence intensity, dye comparison): 0.05 ml dye + 0.05 ml fibrils, diluted with PBS to 1 ml; for identification effect on bovine insulin fibrils (fluorescence intensity): dye 0.2 mM, dye-insulin 0.025 mM, dye-insulin fibril 0.025 mM, FIG. 3A / FIG. 7
Protocol: 2) The bovine insulin fibrils were diluted with PBS to 0 μm, 1 μm, 3 μm, 5 μm, 10 μm, 20 μm and 30 μm respectively. Then the diluted samples were each added with 0.05 mL of […] (1 mM) solution, and tested in a fluorescence spectrometer for the fluorescence intensity (λex=440 nm). […] The results are shown in FIG. 1, where FIG. 1-A was the detection limit of QR on the bovine insulin fibrils; and FIG. 1-B was a linear interval for QR identification of the bovine insulin fibrils.
QR (0.2 mM), QR-insulin (0.025 mM) and QR-insulin fibril (0.025 mM) were determined for fluorescence intensities respectively.
as §1
The fluorescence intensities of 4-(4-dimethylaminostyryl)quinoline (0.2 mM), 4-(4-dimethylaminostyryl)quinoline-insulin (0.025 mM) and 4-(4-dimethylaminostyryl)quinoline-insulin fibrils (0.025 mM) were determined respectively.

lysozyme amyloid fibrils = lysozyme amyloid fibrils (Gallus gallus, UniProt P00698); assay: Monitoring the kinetic process of lysozyme fibrillation by fluorescence; settings: lysozyme 0.1 mM in glycine/NaCl pH 2.0, samples at different time points; FIG. 3D
Protocol: The kinetic process of the formation of the lysozyme amyloid fibrils was monitored with QR. […] Three duplicate samples were made for each group of samples, and all of the above samples were determined on a fluorescence spectrometer for fluorescence intensities.

insulin fibril = insulin fibril (Bos taurus, UniProt P01317); assay: Photobleaching experiment under ultraviolet light (365 nm); assay type: physicochemical, bovine; settings: UV 365 nm, insulin fibril 0.025 mM, dyes 0.05 mm, measured every 30 minutes; FIG. 6
insulin fibril, sequence (P01317 25-54 limits assumed): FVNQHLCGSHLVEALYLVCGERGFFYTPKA
insulin fibril, sequence (P01317 85-105 limits assumed): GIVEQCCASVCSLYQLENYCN
Protocol: A photobleaching experiment was carried out under ultraviolet light (365 nm). An insulin fibril (0.025 mM) was mixed with QR, ThT, ThS and NR respectively, with the concentrations of all dyes being 0.05 mm. The mixtures were placed under an ultraviolet lamp (365 nm) and measured for fluorescence every 30 minutes.

T1 sequence (P01317 25-54 limits assumed): as the sequence (P01317 25-54 limits assumed) above
T2 sequence (P01317 25-54 limits assumed): as above
lysozyme fibrils, sequence (P00698 19-147): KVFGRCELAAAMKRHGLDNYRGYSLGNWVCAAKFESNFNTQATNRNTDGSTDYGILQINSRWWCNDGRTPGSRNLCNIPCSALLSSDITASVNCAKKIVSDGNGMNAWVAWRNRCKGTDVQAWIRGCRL
lysozyme amyloid fibrils, sequence (P00698 19-147): as above
bovine insulin amyloid fibrils, sequence (P01317 25-54 limits assumed): as the sequence (P01317 25-54 limits assumed) above

| Compound | identification effect on bovine insulin fibrils (fluorescence intensity) (bovine insulin fibrils [5]) | fluorescence intensity of dye + insulin fibrils with increase of the illumination time (photostability) (insulin fibril) | identification of bovine insulin fibril (fluorescence intensity, dye comparison) (bovine insulin fibrils [5]; FIG. 5-A) | also measured |
| --- | --- | --- | --- | --- |
| CC[n+]1c(/C=C/c2ccc(N(C)C)cc2)ccc2ccccc21 [QR, quinaldine red] | good identification effect | remained basically unchanged | could well identify the bovine insulin fibril | replacement of ThT, ThS, NR bound to bovine insulin fibrils (bovine insulin fibrils [1]): replacement effect was obvious; detection of the dynamic process of bovine insulin fibrillation [2]: could well detect the dynamic process of bovine insulin fibrillation; identification effect on lysozyme fibrils (fluorescence intensity) (lysozyme fibrils): good identification effect; binding constant of binding with the bovine insulin (comparison among dyes) (bovine insulin [3]): largest binding constant; Raman signal between 900-1100 cm-1 (bovine insulin [4]): the signal for QR-insulin was disappeared; linear range of fluorescence response to bovine insulin fibrils (bovine insulin fibrils [5]; fibrils diluted with PBS to 0-30 μm, fluorescence spectrometer, FIG. 1): 0-30 μm; fluorescence intensity compared with the other dyes (bovine insulin fibrils [5]; red light region, FIG. 5-A): certain advantages of the fluorescence intensity in the red light region; detection of the dynamic process of lysozyme fibrillation (lysozyme amyloid fibrils): could well detect the dynamic process of lysozyme fibrillation |
| CCN(CC)c1ccc2nc3c4ccccc4c(=O)cc-3oc2c1 [NR, nile red, reference compound] |  | decreased significantly | could well identify the bovine insulin fibril |  |
| CN(C)c1ccc(C=Cc2ccnc3ccccc23)cc1 [4-(4-dimethylaminostyryl)quinoline] | good identification effect |  |  |  |

Second part, led by results:

| identification effect on bovine insulin fibrils (fluorescence intensity) (bovine insulin fibrils [5]) | fluorescence intensity of dye + insulin fibrils with increase of the illumination time (photostability) (insulin fibril) | Compound | identification of bovine insulin fibril (fluorescence intensity, dye comparison) (bovine insulin fibrils [5]; FIG. 5-A) | also measured |
| --- | --- | --- | --- | --- |
|  | decreased significantly | Thioflavin S [ThS, reference compound] | could well identify the bovine insulin fibril |  |
|  | decreased significantly | Cc1ccc2c(c1)sc(-c1ccc(N(C)C)cc1)[n+]2C.[Cl-] [ThT, Thioflavin T, reference compound] | could well identify the bovine insulin fibril |  |
